Experimental data taken from US8772512B2, “Crystallisation process for 1-(β-D-glucopyranosyl)-4-methyl-3-[5-(4-fluorophenyl)-2-thienylmethyl] benzene” (Janssen Pharmaceutica NV, priority 2009, dated 2014).

Legend:
[1] = Particle size distribution by laser diffraction (Malvern Mastersizer 2000, wet dispersion); assay type: physicochemical; conditions: Fraunhofer optical model, hemihydrate; for particle size distribution D10: d10 cumulative undersize by volume, dispersed in 1% (w/v) polysorbate 20 in water; for particle size distribution D50: d50 cumulative undersize by volume; for particle size distribution D90: d90 cumulative undersize by volume
Procedure: Particle size of original compound (I) and crystallised compound (I) according to the procedure of Example 1 have been determined with laser diffraction (LD). For this purpose, a Malvern Mastersizer 2000 laser diffractometer (Malvern, U.K.) has been used, which was equipped with a Hydro 2000S wet dispersion module. Prior to analysis, an amount of ca. 200 mg of the product was dispersed in 1% (w/v) polysorbate 20 in water by means of vigorous shaking for 30 seconds. A representative portion of this dispersion was than added to the reservoir of the wet dispersion module, which for this purpose was filled with water. The liquid medium was circulated via the measurement cell of the instrument, to allow measurement of the product specific scattering pattern. Based on the scattering intensities as measured under different angles relative to the incoming collimated laser beam, for compound (I) the particle size distribution (PSD) by volume was calculated based on the Fraunhofer optical model. For the PSD, the d10, d50 and d90 cumulative undersize were reported as the relevant statistical descriptors.

[2] = Bulk and tap density (25 g in 100-ml graduated cylinder; 500 taps); assay type: physicochemical; conditions: for Bulk density: 25 g, volume in 100-ml graduated cylinder; for Bulk density / Tap density: hemihydrate; for Tap density: after 500 taps
Procedure: The bulk and tap densities of the crystallised 1-(β-D-glucopyranosyl)-4-methyl-3-[5-(4-fluorophenyl)-2-thienylmethyl] benzene hemihydrate were measured. The bulk density of 25 g of compound (I) was measured by recording its volume in a 100-ml graduated cylinder. Tap density volume was then measured after 500 taps.

| Structure (SMILES) | particle size distribution D10 [1] | particle size distribution D50 [1] | particle size distribution D90 [1] | Bulk density [2] | Tap density [2] | bulk density higher than for original compound (I) ([2]; crystallised according to Example 1 versus original compound (I)) |
| --- | --- | --- | --- | --- | --- | --- |
| Cc1ccc([C@@H]2O[C@H](CO)[C@@H](O)[C@H](O)[C@H]2O)cc1Cc1ccc(-c2ccc(F)cc2)s1 [crystallised compound (I), 1-(β-D-glucopyranosyl)-4-methyl-3-[5-(4-fluorophenyl)-2-thienylmethyl] benzene hemihydrate] | 20 μm | 49 μm | 102 μm | 0.35 g/mL | 0.54 g/mL | 20% |
| Cc1ccc([C@@H]2O[C@H](CO)[C@@H](O)[C@H](O)[C@H]2O)cc1Cc1ccc(-c2ccc(F)cc2)s1 [original compound (I), 1-(β-D-glucopyranosyl)-4-methyl-3-[5-(4-fluorophenyl)-2-thienylmethyl] benzene hemihydrate] | 14 μm | 43 μm | 116 μm | 0.28 g/mL | 0.48 g/mL | – |
